In patent US20220370453A1 (Storm Therapeutics Ltd, priority 2019, published 2022) one finds IC50 data, which are given here for 24 compounds.

Experiment [1] deals with T1, BCDIN3D (Homo sapiens, UniProt Q7Z5W3).
T1 sequence (Q7Z5W3 1-292): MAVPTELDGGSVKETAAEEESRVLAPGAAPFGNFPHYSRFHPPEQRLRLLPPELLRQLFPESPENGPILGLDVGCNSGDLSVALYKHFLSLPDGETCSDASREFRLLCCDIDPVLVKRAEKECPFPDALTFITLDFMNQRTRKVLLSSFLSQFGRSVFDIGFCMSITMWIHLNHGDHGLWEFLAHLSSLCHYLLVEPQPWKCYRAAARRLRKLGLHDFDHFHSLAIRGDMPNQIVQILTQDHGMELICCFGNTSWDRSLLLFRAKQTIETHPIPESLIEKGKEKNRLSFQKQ
Briefly: BCDIN3D IC50 RFMS (RapidFire) assay with mini-helix. The class given is biochemical. Particulars: 25 nM enzyme. In short, it runs like this:
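SAH formation was measured by RapidFire mass spectrometry with D4- and 13C10-SAH internal standards after TCA quench. Substrates 6 μM SAM and 0.2 μM mini-helix reacted 1 h at 37 °C with 25 nM enzyme, which had been preincubated 10 min with compound (1% DMSO) in Tris pH 8.0 buffer with DTT, EDTA, BSA.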

Experiment [2] deals with T1, BCDIN3D. Description: BCDIN3D InCellPulse thermal stability assay in transfected A549 cells. It is filed as cell-based. Particulars: heat shock 58° C. 15 min. In short, it runs like this:
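Thermal stabilisation read-out: after a 15 min 58 °C heat shock, ePL-tagged BCDIN3D in transiently transfected A549 cells (1500/well) was quantified by enzyme-fragment complementation luminescence. Compounds were pre-incubated with cells 1 h at 37 °C, 0.6% DMSO final.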

[3] abbreviates: mini-helix substrate 0.2 μM, SAM 6 μM.
Where [4] appears, read: transiently transfected A549 cells.
[5] abbreviates: mini-helix 0.2 μM and SAM 6 μM as substrates, 1 hr at 37° C.
Where [6] appears, read: A549 cells transiently transfected with ePL-BCDIN3D, 1 h pre-incubation.

Usually IC50 stands for the concentration that inhibits the measured activity by half. As to `Cn1ncc2c(NC(C)(C)C)nc(NCC(N)c3ccccc3Br)nc21` (stereo not drawn) [Compound 5.20, N6-[2-amino-2-(2-bromophenyl)ethyl]-N4-tert-butyl-1-methyl-pyrazolo[3,4-d]pyrimidine-4,6-diamine], the figures for the IC50 against BCDIN3D [1] (setting [3]) and against BCDIN3D [2] (setting [4]) were 609 nM and 1120 nM, respectively.
On to `CNc1nc(NCC(N)c2ccc(C#N)cc2)nc2c1cnn2C` (stereo not drawn) [Compound 5.21, 4-[1-amino-2-[[1-methyl-4-(methylamino)pyrazolo[3,4-d]pyrimidin-6-yl]amino]ethyl]benzonitrile], for which the IC50 at BCDIN3D [1] (setting [3]) was 3860 nM; against BCDIN3D [2] (setting [4]), 11100 nM.
For `Cn1ncc2c(NC(C)(C)C)nc(NCC(N)c3cccc(C#N)c3)nc21` (stereo not drawn) [Compound 5.22, 3-[1-amino-2-[[4-(tert-butylamino)-1-methyl-pyrazolo[3,4-d]pyrimidin-6-yl]amino]ethyl]benzonitrile], the IC50 on BCDIN3D [1] (setting [3]) is 42.8 nM; against BCDIN3D [2] (setting [4]) it was 129 nM.
Consider `Cn1ncc2c(NC(C)(C)C(F)(F)F)nc(NC[C@H](N)c3cccc(C#N)c3)nc21` [Compound 5.23, 3-[(1R)-1-amino-2-[[1-methyl-4-[(2,2,2-trifluoro-1,1-dimethyl-ethyl)amino]pyrazolo[3,4-d]pyrimidin-6-yl]amino]ethyl]benzonitrile], for which the IC50 against BCDIN3D [1] (setting [3]) was found to be 61.7 nM; on BCDIN3D [2] (setting [4]), 124 nM.
On to `Cn1ncc2c(NC3CC(F)(F)C3)nc(NCC(N)c3cccnc3)nc21` (stereo not drawn) [Compound 5.25, N6-[2-amino-2-(3-pyridyl)ethyl]-N4-(3,3-difluorocyclobutyl)-1-methyl-pyrazolo[3,4-d]pyrimidine-4,6-diamine], for which the IC50 at BCDIN3D [1] (setting [3]) amounted to 1810 nM; on BCDIN3D [2] (setting [4]), 5580 nM.
As for `Cn1ncc2c(NC(C)(C)C)nc(NCC(N)c3ccncc3)nc21` (stereo not drawn) [Compound 5.26, N6-[2-amino-2-(4-pyridyl)ethyl]-N4-tert-butyl-1-methyl-pyrazolo[3,4-d]pyrimidine-4,6-diamine], the IC50 against BCDIN3D [1] (setting [3]) worked out at 3390 nM; on BCDIN3D [2] (setting [4]), 5570 nM.
`Cn1ncc2c(NC3CC(F)(F)C3)nc(NCC(N)c3ccncc3)nc21` (stereo not drawn) [Compound 5.27, N6-[2-amino-2-(4-pyridyl)ethyl]-N4-(3,3-difluorocyclobutyl)-1-methyl-pyrazolo[3,4-d]pyrimidine-4,6-diamine]: the IC50 against BCDIN3D [1] (setting [3]) turned out to be 2810 nM; at BCDIN3D [2] (setting [4]) it was 10000 nM.
The corresponding values for `Cn1ncc2c(NC(C)(C)C)nc(NC[C@H](N)c3ccc(C#N)cc3)nc21` [Compound 5.28, 4-[(1R)-1-amino-2-{[4-(tert-butylamino)-1-methyl-1H-pyrazolo[3,4-d]pyrimidin-6-yl]amino}ethyl]benzonitrile] are 90 nM and 370 nM.
The corresponding values for `CN[C@@H](CNc1nc(NC(C)(C)C)c2cnn(C)c2n1)c1ccccc1` [Compound 5.29, N4-tert-butyl-1-methyl-N6-[(2R)-2-(methylamino)-2-phenylethyl]-1H-pyrazolo[3,4-d]pyrimidine-4,6-diamine] are 2780 nM and 1690 nM.
On to `Cn1ncc2c(NC(C)(C)C)nc(NCC(N)c3cccc(C4CC4)c3)nc21` (stereo not drawn) [Compound 5.32, N6-[2-amino-2-(3-cyclopropylphenyl)ethyl]-N4-tert-butyl-1-methyl-1H-pyrazolo[3,4-d]pyrimidine-4,6-diamine], for which the half-maximal inhibitory concentration (IC50) on BCDIN3D [1] (setting [3]) is 70 nM; against BCDIN3D [2] (setting [4]), 120 nM.
Take `Cn1ncc2c(NC(C)(C)C)nc(NCC(N)c3ccc(C4CC4)cc3)nc21` (stereo not drawn) [Compound 5.33, N6-[2-amino-2-(4-cyclopropylphenyl)ethyl]-N4-tert-butyl-1-methyl-1H-pyrazolo[3,4-d]pyrimidine-4,6-diamine]: the IC50 is 130 nM against BCDIN3D [1] (setting [3]) and 150 nM on BCDIN3D [2] (setting [4]).
On to `CCOc1nc(NCC(N)c2ccccc2)nc2c1cnn2C` (stereo not drawn) [Compound 6.01, N′-(4-Ethoxy-1-methylpyrazolo[3,4-d]pyrimidin-6-yl)-1-phenylethane-1,2-diamine], for which the IC50 at BCDIN3D [1] (setting [5]) worked out at 2510 nM; against BCDIN3D [2] (setting [6]), 6610 nM.
For `CC(C)Oc1nc(NCC(N)c2ccccc2)nc2c1cnn2C` (stereo not drawn) [Compound 6.04, N′-(1-methyl-4-propan-2-yloxypyrazolo[3,4-d]pyrimidin-6-yl)-1-phenylethane-1,2-diamine], the IC50 at BCDIN3D [1] (setting [5]) was 2620 nM; against BCDIN3D [2] (setting [6]), 4150 nM.
As for `Cn1ncc2c(OC(C)(C)C)nc(NCC(N)c3ccccc3)nc21` (stereo not drawn) [Compound 6.05, N′-(4-tert-butoxy-1-methyl-pyrazolo[3,4-d]pyrimidin-6-yl)-1-phenyl-ethane-1,2-diamine], the IC50 was 4160 nM against BCDIN3D [1] (setting [5]) and 5140 nM at BCDIN3D [2] (setting [6]).
`Cc1ccc(CNc2nc(N[C@H]3CCCC[C@H]3N)nc3c2cnn3C)cc1Cl` [Compound 7.02, 6-N-[(1S,2R)-2-aminocyclohexyl]-4-N-[(3-chloro-4-methylphenyl)methyl]-1-methylpyrazolo[3,4-d]pyrimidine-4,6-diamine]: the IC50 came out at 998 nM at BCDIN3D [1] (setting [5]) and 899 nM against BCDIN3D [2] (setting [6]).
The corresponding values for `Cn1ncc2c(NC3CC3)nc(NC[C@H](N)c3ccccc3)nc21` [Compound 7.04, N6-[(2R)-2-amino-2-phenyl-ethyl]-N4-cyclopropyl-1-methyl-pyrazolo[3,4-d]pyrimidine-4,6-diamine] are 3910 nM and 2970 nM.
As for `Cn1ncc2c(Nc3ccc(F)cc3)nc(NC[C@H](N)c3ccccc3)nc21` [Compound 7.05, N6-[(2R)-2-amino-2-phenyl-ethyl]-N4-(4-fluorophenyl)-1-methyl-pyrazolo[3,4-d]pyrimidine-4,6-diamine], the results for the IC50 against BCDIN3D [1] (setting [5]) and against BCDIN3D [2] (setting [6]) were 241 nM and 169 nM, respectively.
Consider `Cn1ncc2c(Nc3ccc(F)cc3)nc(NC[C@@H](N)c3ccccc3)nc21` [Compound 7.06, N6-[(2S)-2-amino-2-phenyl-ethyl]-N4-(4-fluorophenyl)-1-methyl-pyrazolo[3,4-d]pyrimidine-4,6-diamine], for which the IC50 was 2190 nM on BCDIN3D [1] (setting [5]) and 2930 nM at BCDIN3D [2] (setting [6]).
As to `Cn1ncc2c(NCC(F)(F)F)nc(NC[C@@H](N)c3ccccc3)nc21` [Compound 7.07, N6-[(2S)-2-amino-2-phenyl-ethyl]-1-methyl-N4-(2,2,2-trifluoroethyl)pyrazolo[3,4-d]pyrimidine-4,6-diamine], the IC50 against BCDIN3D [1] (setting [5]) came to 5620 nM; at BCDIN3D [2] (setting [6]), 4120 nM.
The corresponding values for `Cn1ncc2c(Nc3ccc(C(F)(F)F)nc3)nc(NC[C@H](N)c3ccccc3)nc21` [Compound 7.08, N6-[(2R)-2-amino-2-phenyl-ethyl]-1-methyl-N4-[6-(trifluoromethyl)-3-pyridyl]pyrazolo[3,4-d]pyrimidine-4,6-diamine] are 33.4 nM and 223 nM.
`Cn1ncc2c(Nc3ccc(C(F)(F)F)nc3)nc(NC[C@@H](N)c3ccccc3)nc21` [Compound 7.09, N6-[(2S)-2-amino-2-phenyl-ethyl]-1-methyl-N4-[6-(trifluoromethyl)-3-pyridyl]pyrazolo[3,4-d]pyrimidine-4,6-diamine]: the values for the 50% inhibitory concentration (IC50) against BCDIN3D [1] (setting [5]) and on BCDIN3D [2] (setting [6]) were 209 nM and 414 nM, respectively.
Turning to `Cn1ncc2c(NC(C)(C)C)nc(NC[C@@H](N)c3ccccc3F)nc21` [Compound 7.11, N6-[(2S)-2-amino-2-(2-fluorophenyl)ethyl]-N4-tert-butyl-1-methyl-pyrazolo[3,4-d]pyrimidine-4,6-diamine], the IC50 against BCDIN3D [1] (setting [5]) stood at 181 nM; at BCDIN3D [2] (setting [6]) it was 4180 nM.
Take `Cc1ccc(CNc2nc(NC[C@@H](N)CF)nc3c2cnn3C)cc1Cl` [Compound 7.14, 6-N-[(2R)-2-amino-3-fluoropropyl]-4-N-[(3-chloro-4-methylphenyl)methyl]-1-methylpyrazolo[3,4-d]pyrimidine-4,6-diamine]: the IC50 came to 5650 nM on BCDIN3D [1] (setting [5]) and 6320 nM against BCDIN3D [2] (setting [6]).
Take `Cn1ncc2c(NC(C)(C)C)nc(NC[C@H](N)c3ccc(F)cc3)nc21` [Compound 7.18, N6-[(2R)-2-amino-2-(4-fluorophenyl)ethyl]-N4-tert-butyl-1-methyl-1H-pyrazolo[3,4-d]pyrimidine-4,6-diamine]: the IC50 was determined as 330 nM against BCDIN3D [1] (setting [5]) and 410 nM at BCDIN3D [2] (setting [6]).
